Experimental data: patent US20250099420A1, “SMALL MOLECULE MODULATORS OF GPR139 COMPLEX” (University of Florida Research Foundation, Incorporated, priority 2022, published 2025)
Like-named read-outs stand apart in the source and are kept apart here.

Tests used:
parental HEK cells = assay: HEK parental Agonist Counterscreen Assay (non-transfected cells); assay type: cell-based; settings: for Averaged Max % Response (±St. Dev.): activity relative to known control
Excerpt: The high control for the agonist counterscreen was Forskolin not acetylcholine.

GPR139 = biological target: T1, GPR139 (Homo sapiens, UniProt Q6DWJ6); assay: GPR139 Agonist titration / agonist counterscreen assay (calcium detection, HEK-GPR139 cells); assay type: cell-based; parameters: expressed in transfected cells; host or cells: HEK Aequorin cells, Maxcyte transient transfection; settings: GPR139 Agonist Activity; for EC50: read-out: EC50; for Averaged Max % Response (±St. Dev.): activity relative to known control
T1 sequence (Q6DWJ6 1-353): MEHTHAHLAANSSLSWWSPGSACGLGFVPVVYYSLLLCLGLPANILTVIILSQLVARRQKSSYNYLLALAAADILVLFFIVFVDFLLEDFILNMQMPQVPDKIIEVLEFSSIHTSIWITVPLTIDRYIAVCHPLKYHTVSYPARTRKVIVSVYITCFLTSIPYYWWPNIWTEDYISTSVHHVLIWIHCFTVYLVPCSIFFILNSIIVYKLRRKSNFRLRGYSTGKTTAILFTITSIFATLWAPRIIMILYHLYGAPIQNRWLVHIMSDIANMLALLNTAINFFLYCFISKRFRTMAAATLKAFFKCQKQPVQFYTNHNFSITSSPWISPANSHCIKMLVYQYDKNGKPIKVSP
Experimental: GPR activity was assessed using a calcium detection assay. […] Negative control samples were treated with DMSO. […] Intracellular calcium was measured using Calcium 5.

[1] = Homo sapiens, HEK293, HEK Agonist Activity section of Table 4 (parental HEK counterscreen)
[2] = values printed in E-notation without unit
[3] = HEK Agonist Activity section of Table 4 (parental HEK counterscreen)
[4] = Homo sapiens, HEK293, HEK Agonist Activity, parental non-transfected HEK cells

Row | Structure (SMILES) | Lipophilic Efficiency (logD) (parental HEK cells; HEK Agonist Activity section) | Lipophilic Efficiency (logP) (parental HEK cells; HEK Agonist Activity section) | Averaged Max % Response (±St. Dev.) (parental HEK cells; HEK Agonist Activity section) [%] | EC50 (parental HEK cells; [1]) [nM] | Averaged Max % Response (±St. Dev.) (GPR139) [%] | Lipophilic Efficiency (logD) (parental HEK cells; HEK Agonist Activity) | Lipophilic Efficiency (logP) (parental HEK cells; HEK Agonist Activity) | Averaged Max % Response (±St. Dev.) (parental HEK cells; HEK Agonist Activity) [%] | Lipophilic Efficiency (logD) (GPR139; based on logD) | Lipophilic Efficiency (logP) (GPR139; based on logP) | Hill Slope (GPR139; fitted dose-response curve) | Efficiency Ligand (GPR139; ligand efficiency) | EC50 (GPR139; [2]) [nM] | further results
1 | Cc1ccc(Nc2cn[nH]c(=S)n2)c(C)c1 [SR-01000013346] | 2.37 | 1.95 | −4.67 ± 3.34 | > 14600 | 74.67 ± 0.55 | – | – | – | – | – | – | – | – | Efficiency Ligand (GPR139): 0.54; Hill Slope (GPR139): 0.99; Lipophilic Efficiency (logD) (GPR139): 3.66; Lipophilic Efficiency (logP) (GPR139): 3.24; EC50 (GPR139; HEK-GPR139 cells): 743 nM
2 | CCCc1ccc(NC(=O)CCc2nc3c(c(=O)n2C)CCC3)cc1 [SR-01000017533] | 2.68 | 2.68 | −1.95 ± 4.81 | > 14200 | 69.12 ± 3.13 | – | – | – | – | – | – | – | – | Efficiency Ligand (GPR139): 0.31; Hill Slope (GPR139): 1.55; Lipophilic Efficiency (logD) (GPR139): 3.33; Lipophilic Efficiency (logP) (GPR139): 3.33
3 | O=C(CC(c1ccccc1)c1ccccc1)Oc1coc(CSc2ncccn2)cc1=O [SR-01000020502] | – | – | – | – | 91.42 ± 14.52 | 0.13 | 0.13 | 4.84 ± 4.90 | 2.69 | 2.69 | 1.13 | 0.32 | 38.7 | EC50 (parental HEK cells; HEK Agonist Activity, parental non-transfected HEK cells): > 13900 nM
4 | Cc1ccc(SCC(=O)Nc2nnc(-c3ccco3)o2)cc1 [SR-01000021414] | 2.38 | 2.38 | 22.31 ± 11.03 | – | 97.10 ± 8.84 | – | – | – | 4.46 | 4.46 | 0.83 | 0.44 | 119 | EC50 (parental HEK cells; [3]): > 14300 nM
5 | Cc1ccc(SCC(=O)Nc2nnc(-c3ccccc3Cl)o2)cc1 [SR-01000021416] | – | – | – | – | 122.23 ± 2.65 | 0.84 | 0.84 | 23.13 ± 4.18 | 3.53 | 3.53 | 0.24 | 0.44 | 29.1 | EC50 (parental HEK cells; [4]): > 14100 nM
6 | O=C(CSc1ccc(Cl)cc1)Nc1nnc(-c2ccco2)o1 [SR-01000021433] | 2.29 | 2.29 | 27.04 ± 4.04 | > 14300 | 111.88 ± 11.27 | – | – | – | 4.59 | 4.59 | 0.56 | 0.45 | 71.8 | –
7 | O=C(CSc1ccc(Cl)cc1)Nc1nnc(-c2ccc(F)cc2)o1 [SR-01000021435] | 1.22 | 1.22 | 24.48 ± 11.03 | – | 162.60 ± 13.73 | – | – | – | 3.60 | 3.60 | – | 0.42 | > 57.4 | EC50 (parental HEK cells; [3]): > 13900 nM
8 | O=C(O)COc1cc(Br)c(Br)c(Br)c1O [SR-01000028953] | 5.29 | 1.52 | 1.36 ± 9.86 | > 15300 | 88.05 ± 4.24 | – | – | – | – | – | – | – | – | Efficiency Ligand (GPR139): 0.54; Hill Slope (GPR139): 0.80; Lipophilic Efficiency (logD) (GPR139): 6.30; Lipophilic Efficiency (logP) (GPR139): 2.53
9 | O=C(CN1CCCc2ccccc21)NNC(=O)Nc1ccc(Cl)c(Cl)c1 [SR-01000029575] | 1.09 | 1.08 | 7.49 ± 5.72 | > 14300 | 96.54 ± 7.56 | – | – | – | 3.35 | 3.34 | 0.79 | 0.38 | 78.1 | –
10 | CC(=O)c1cccc(C(C)(C)CC(=O)CNC(=O)c2ccccc2)c1 [SR-01000031674] | – | – | – | – | 113.33 ± 7.65 | 2.46 | 2.46 | 35.54 ± 2.15 | 6.57 | 6.57 | 0.44 | 0.50 | – | EC50 (parental HEK cells; [4]): > 15000 nM
11 | COC(=O)c1ccc(CSc2nnc(N)s2)cc1 [SR-01000031964] | 2.26 | 2.26 | 13.73 ± 5.82 | – | 89.11 ± 2.96 | – | – | – | – | – | – | – | – | EC50 (parental HEK cells; [3]): > 16000 nM; Efficiency Ligand (GPR139): 0.51; Hill Slope (GPR139): 1.27; Lipophilic Efficiency (logD) (GPR139): 4.00; Lipophilic Efficiency (logP) (GPR139): 4.00; EC50 (GPR139; HEK-GPR139 cells): 290 nM
12 | COc1ccc(CCNC(=O)CC(=O)NCCc2ccc(OC)cc2)cc1 [SR-01000034566] | 2.60 | 2.60 | −4.69 ± 7.66 | – | 100.73 ± 15.83 | – | – | – | 4.65 | 4.65 | 0.96 | 0.36 | 137 | EC50 (parental HEK cells; [3]): > 15200 nM
13 | Nc1ccc(C(=O)OCC(=O)NC2CCCc3ccccc32)cc1[N+](=O)[O-] (centres unmarked) [SR-01000034627] | 1.47 | 1.47 | 2.09 ± 12.58 | > 15300 | 64.98 ± 9.75 | – | – | – | 3.27 | 3.27 | 2.03 | 0.34 | 245 | –
14 | CC(NC(=O)COC(=O)c1ccccc1C(F)(F)F)c1ccccc1 (centres unmarked) [SR-01000037440] | – | – | – | – | 90.68 ± 18.21 | 0.95 | 0.95 | 16.47 ± 8.15 | 3.59 | 3.59 | 0.54 | 0.42 | 32.9 | EC50 (parental HEK cells; [4]): > 14400 nM
15 | O=C(CN1C(=O)NC2(CCc3ccccc3C2)C1=O)Nc1ccccc1Oc1ccccc1 (centres unmarked) [SR-01000039980] | – | – | – | – | 134.67 ± 13.58 | 0.84 | 0.84 | 39.53 ± 8.33 | 4.01 | 4.01 | 0.55 | 0.34 | 10.4 | EC50 (parental HEK cells; [4]): > 15300 nM
